Experimental data reported in the NIST ThermoML archive (doi:10.1021/acs.jced.7b00519).
Where “and” joins values, the source holds several entries; their conditions need not be identical. Identical values can stand only once. ± gives the expanded uncertainty stated by the source.

Details: Metastable liquid, horizontal capillary tube

## O [water]
249.9 K
  surface tension liquid-gas: 78.88 ± 0.8 mN/m and 78.87 ± 0.8 mN/m
249.91 K
  surface tension liquid-gas: 78.91 ± 0.8 mN/m
250.79 K
  surface tension liquid-gas: 78.85 ± 0.8 mN/m
250.8 K
  surface tension liquid-gas: 78.72 ± 0.78 mN/m
250.81 K
  surface tension liquid-gas: 78.72 ± 0.78 mN/m
250.82 K
  surface tension liquid-gas: 78.72 ± 0.78 mN/m and 78.77 ± 0.78 mN/m and 78.69 ± 0.78 mN/m
251.37 K
  surface tension liquid-gas: 78.69 ± 0.8 mN/m and 78.66 ± 0.8 mN/m
251.39 K
  surface tension liquid-gas: 78.68 ± 0.8 mN/m
251.91 K
  surface tension liquid-gas: 78.65 ± 0.8 mN/m
251.92 K
  surface tension liquid-gas: 78.65 ± 0.8 mN/m
252.81 K
  surface tension liquid-gas: 78.39 ± 0.78 mN/m
252.82 K
  surface tension liquid-gas: 78.47 ± 0.78 mN/m
252.86 K
  surface tension liquid-gas: 78.51 ± 0.8 mN/m and 78.48 ± 0.8 mN/m and 78.47 ± 0.8 mN/m
252.88 K
  surface tension liquid-gas: 78.38 ± 0.78 mN/m and 78.4 ± 0.78 mN/m and 78.41 ± 0.78 mN/m
253.36 K
  surface tension liquid-gas: 78.37 ± 0.78 mN/m and 78.4 ± 0.78 mN/m
253.79 K
  surface tension liquid-gas: 78.34 ± 0.78 mN/m
253.81 K
  surface tension liquid-gas: 78.27 ± 0.78 mN/m
254.9 K
  surface tension liquid-gas: 78.3 ± 0.8 mN/m
254.91 K
  surface tension liquid-gas: 78.28 ± 0.8 mN/m
255.29 K
  surface tension liquid-gas: 78.03 ± 0.8 mN/m
255.32 K
  surface tension liquid-gas: 78.13 ± 0.78 mN/m
255.33 K
  surface tension liquid-gas: 78.15 ± 0.78 mN/m
255.34 K
  surface tension liquid-gas: 78.07 ± 0.78 mN/m [middle of 4 runs]
255.84 K
  surface tension liquid-gas: 78.05 ± 0.78 mN/m and 78.06 ± 0.78 mN/m
255.85 K
  surface tension liquid-gas: 78.07 ± 0.78 mN/m
256.33 K
  surface tension liquid-gas: 77.91 ± 0.78 mN/m
256.34 K
  surface tension liquid-gas: 77.97 ± 0.78 mN/m
256.87 K
  surface tension liquid-gas: 77.86 ± 0.78 mN/m and 77.87 ± 0.78 mN/m
257.83 K
  surface tension liquid-gas: 77.72 ± 0.78 mN/m
257.84 K
  surface tension liquid-gas: 77.75 ± 0.78 mN/m
257.87 K
  surface tension liquid-gas: 77.94 ± 0.8 mN/m
257.88 K
  surface tension liquid-gas: 77.92 ± 0.8 mN/m
258.8 K
  surface tension liquid-gas: 77.63 ± 0.78 mN/m
258.81 K
  surface tension liquid-gas: 77.61 ± 0.78 mN/m
259.3 K
  surface tension liquid-gas: 77.59 ± 0.78 mN/m and 77.6 ± 0.78 mN/m
259.8 K
  surface tension liquid-gas: 77.54 ± 0.78 mN/m and 77.5 ± 0.78 mN/m
260.83 K
  surface tension liquid-gas: 77.35 ± 0.78 mN/m
260.84 K
  surface tension liquid-gas: 77.36 ± 0.78 mN/m
261.8 K
  surface tension liquid-gas: 77.24 ± 0.76 mN/m
261.81 K
  surface tension liquid-gas: 77.2 ± 0.76 mN/m
262.27 K
  surface tension liquid-gas: 77.23 ± 0.78 mN/m
262.28 K
  surface tension liquid-gas: 77.21 ± 0.78 mN/m
262.82 K
  surface tension liquid-gas: 77.04 ± 0.78 mN/m and 77.06 ± 0.78 mN/m
262.83 K
  surface tension liquid-gas: 77.07 ± 0.78 mN/m
263.26 K
  surface tension liquid-gas: 77 ± 0.76 mN/m
263.27 K
  surface tension liquid-gas: 77.01 ± 0.76 mN/m
